Measured values reported in patent publication US7550459B2, “Tetrahydroquinoline analogues as muscarinic agonists” (Acadia Pharmaceuticals, Inc., priority 2001, dated 2009).
Read-outs that look alike come from different tables or passages of the source.

Legend:
[1] = target: T1, M1 muscarinic receptor (Homo sapiens, UniProt P11229); assay: Receptor Selection and Amplification (R-SAT) assay, cloned M1 receptor; type: cell-based; parameters: M1 Eff: scale not given here; conditions: for Emax: read-out: m1 % Efficacy
T1 construct: expressed in transfected cells
T1 sequence (P11229 1-460): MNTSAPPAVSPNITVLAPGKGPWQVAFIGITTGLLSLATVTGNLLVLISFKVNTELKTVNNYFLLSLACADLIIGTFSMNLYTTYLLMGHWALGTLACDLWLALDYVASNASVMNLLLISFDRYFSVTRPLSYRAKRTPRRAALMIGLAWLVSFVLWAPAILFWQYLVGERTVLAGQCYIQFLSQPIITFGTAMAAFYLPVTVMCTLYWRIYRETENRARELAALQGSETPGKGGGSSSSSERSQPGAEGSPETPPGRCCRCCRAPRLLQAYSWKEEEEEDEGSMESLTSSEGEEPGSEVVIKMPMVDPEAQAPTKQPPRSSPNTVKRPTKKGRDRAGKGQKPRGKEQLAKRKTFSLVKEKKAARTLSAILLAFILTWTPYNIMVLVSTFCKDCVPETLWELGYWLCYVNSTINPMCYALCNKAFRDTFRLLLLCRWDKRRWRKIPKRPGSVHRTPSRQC
Description: (§1) The EC50 for an agonist is intended to denote the concentration of a compound needed to achieve 50% of a maximal response seen in an in vitro assay such as R-SAT. For inverse agonists, EC50 is intended to denote the concentration of a compound needed to achieve 50% inhibition of an R-SAT response from basal, no compound, levels.
(§2) A particularly convenient functional assay system is the receptor selection and amplification assay (R-SAT assay) in U.S. Pat. No. 5,707,798, which describes a method of screening for bioactive compounds by utilizing the ability of cells transfected with receptor DNA, e.g., coding for the different muscarinic subtypes, to amplify in the presence of a ligand of the receptor. Cell amplification is detected as increased levels of a marker also expressed by the cells.
(§3) Receptor Selection and Amplification (R-SAT) assays were carried out using the cloned M1-M5 receptors essentially as described in: Brauner-Osborne H, Brann M R. Pharmacology of muscarinic acetylcholine receptor subtypes (m1-m5): high throughput assays in mammalian cells. Eur J Pharmacol Jan. 4, 1996;295(1):93-102, and Spalding T A, Trotter C, Skjaerbaek N, Messier T L, Currier E A, Burstein E S, Li D, Hacksell U, Brann M R. Discovery of an ectopic activation site on the M(1) muscarinic receptor. Mol Pharmacol. 2002 June;61(6):1297-302.

[2] = target: T2, M2 muscarinic receptor (Homo sapiens, UniProt P08172); assay: Receptor Selection and Amplification (R-SAT) assay, cloned M2 receptor; type: cell-based; parameters: M2 Eff: scale not given here
T2 construct: expressed in transfected cells
T2 sequence (P08172 1-466): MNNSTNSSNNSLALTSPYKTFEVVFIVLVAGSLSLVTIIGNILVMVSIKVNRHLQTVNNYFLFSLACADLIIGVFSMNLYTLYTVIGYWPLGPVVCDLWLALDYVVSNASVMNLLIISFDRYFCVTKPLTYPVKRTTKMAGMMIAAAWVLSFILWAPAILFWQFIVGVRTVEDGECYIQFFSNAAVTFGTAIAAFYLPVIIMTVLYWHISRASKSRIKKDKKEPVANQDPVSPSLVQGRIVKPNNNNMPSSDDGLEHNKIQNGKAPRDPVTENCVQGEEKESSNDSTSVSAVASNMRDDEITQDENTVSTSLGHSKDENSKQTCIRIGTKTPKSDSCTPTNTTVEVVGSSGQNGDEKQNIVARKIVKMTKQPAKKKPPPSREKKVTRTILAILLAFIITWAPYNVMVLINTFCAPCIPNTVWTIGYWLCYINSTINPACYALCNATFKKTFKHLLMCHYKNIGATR
Description: as §1, §2, §3

[3] = m1 pEC50, R-SAT, cloned m1 receptor
[4] = M1 pEC50, R-SAT, second table (COMPOUND ID series)
[5] = R-SAT, second table (COMPOUND ID series)
[6] = M2 pEC50, R-SAT, second table (COMPOUND ID series)
[7] = R-SAT, second table (COMPOUND ID series), read-out: M1 pEC50 (converted)
[8] = R-SAT, second table (COMPOUND ID series), read-out: M2 pEC50 (converted)
[9] = R-SAT, cloned m1 receptor, read-out: m1 pEC50 (converted)

| EC50 [1, 7] | SMILES | EC50 [1, 4] | M1 Eff [1, 5] | M2 Eff [2, 5] | further results |
| --- | --- | --- | --- | --- | --- |
|  | CCCC=C1CC2CCC(C1)N2CCCN1C(=O)COc2ccccc21 [Compound 81MF24, 4-[3-(3-Butylidene-8-aza-bicyclo[3.2.1]oct-8-yl)-propyl]-4H-benzo[1,4]oxazin-3-one] |  |  |  | EC50 [1, 3]: 15.8 nM; Emax [1]: 96%; EC50 ([2]; m2 pEC50, R-SAT, cloned m2 receptor): 100 nM; Emax ([2]; read-out: m2 % Efficacy): 70% |
|  | CCON=C1CC2CCC(C1)N2C[C@@H](C)CN1C(=O)COc2ccccc21 (single isomer, unassigned) [Compound 00261434] | 631 nM | 110 | 50 | EC50 [2, 6]: 2000 nM |
|  | O=C1CCc2cc(F)c(F)cc2N1CCCN1[C@@H]2CC[C@H]1C[C@@H](OCC1CC1)C2 [Compound 00262572, 1-[3-(3a-Cyclopropylmethoxy-8-aza-bicyclo[3.2.1]oct-8-yl)propyl]-6,7-difluoro-3,4-dihydro-1H-quinolin-2-one] | 10 nM | 82 | 31 | EC50 [2, 6]: 200 nM |
|  | CC(CN1C(=O)COc2ccccc21)CN1[C@@H]2CC[C@H]1C[C@@H](OCC1CC1)C2 (mixture of isomers) [Compound 00262573, (R,S)-4-[3-(3a-Cyclopropylmethoxy-8-azabicyclo[3.2.1]oct-8-yl)-2-methylpropyl]-4H-benzo[1.4]oxazin-3-one] | 3.98 nM | 120 | 72 | EC50 [2, 6]: 50.1 nM |
|  | CCOCC[C@@H]1C[C@H]2CC[C@@H](C1)N2C[C@H](C)CN1C(=O)COc2ccccc21 [Compound 00263034, (S)-4-{3-[3β-(2-Ethoxyethyl)-8-azabicyclo[3.2.1]oct-8-yl]-2-methylpropyl}-4H-benzo[1.4]oxazin-3-one] | 158 nM | 68 |  |  |
|  | O=C1CCc2cc(F)c(F)cc2N1CCCN1C2CCC1CC(=CCOCC1CC1)C2 [Compound 00262356, 1-{3-[3-(2-Cyclopropylmethoxyethylidene)-8-azabicyclo[3.2.1]oct-8-yl]-propyl}-6,7-difluoro-3,4-dihydro-1H-quinolin-2-one] | 31.6 nM | 46 |  |  |
|  | CCOCCC1CC2CCC(C1)N2CC(C)CN1C(=O)COc2ccccc21 (single isomer, unassigned) [Compound 00262993] | 79.4 nM | 55 |  |  |
|  | O=C1COc2cc(F)ccc2N1CCCN1[C@@H]2CC[C@H]1C[C@@H](OCC1CC1)C2 [Compound 00262571, 4-[3-(3a-Cyclopropylmethoxy-8-azabicyclo[3.2.1]oct-8-yl)propyl]-7-fluoro-4H-benzo[1.4]oxazin-3-one] | 12.6 nM | 81 | 45 | EC50 [2, 6]: 39.8 nM |
| 63.1 nM | O=C1COc2ccc(F)cc2N1CCCN1CCC(OCC2CC2)CC1 [Compound 00262635, 4-[3-(4-Cyclopropylmethoxypiperidin-1-yl)propyl]-6-fluoro-4H-benzo[1.4]oxazin-3-one] |  | 96 | 53 | EC50 [2, 8]: 794 nM |
| 79.4 nM | CCc1cccc2c1OCC(=O)N2CC(C)CN1CCC(OCC2CC2)CC1 (racemic) [Compound 00262867, (R,S)-4-[3-(4-Cyclopropylmethoxypiperidin-1-yl)-2-methylpropyl]-8-ethyl-4H-benzo[1,4]oxazin-3-one] |  | 104 | 32 | EC50 [2, 8]: 1580 nM |
| 63.1 nM | O=C1COc2cc(F)ccc2N1CCCN1CCC(OCC2CC2)CC1 [Compound 00262469, 4-[3-(4-Cyclopropylmethoxypiperidin-1-yl)propyl]-7-fluoro-4H-benzo[1,4]oxazin-3-one] |  | 98 | 73 | EC50 [2, 8]: 501 nM |
| 631 nM | O=C1COc2c(F)cc(F)cc2N1CCCN1CCC(OCC2CC2)CC1 [Compound 00262874] |  | 87 |  |  |
|  | CCCCC1CCN(CCCN2C(=O)COc3ccc(C(C)=O)cc32)CC1 [Compound 64LHY89-5, 6-Acetyl-4-[3-(4-butyl-piperidin-1-yl)-propyl]-4H-benzo[1,4]oxazin-3-one] |  |  |  | Emax ([1]; R-SAT, cloned m1 receptor): 45%; EC50 [1, 9]: 2510 nM |
| 3980 nM | CC(CN1CCC(OC(=O)OCC2CCC2)CC1)CN1C(=O)COc2ccccc21 (racemic) [Compound 00262198, carbonic acid cyclobutylmethyl ester 1-[(R,S)-2-methyl-3-(3-oxo-2,3-dihydrobenzo[1.4]oxazin-4-yl)propyl]piperidine-4-yl ester] |  | 48 |  |  |
|  | CCCC=C1CCN(C[C@@H](C)CN2C(=O)COc3ccc(OC)cc32)CC1 (racemic) [Compound 107LH74-3D, (R,S)-4-[3-(4-Butylidenepiperidin-1-yl)-2-methylpropyl]-6-methoxy-4H-benzo[1,4]oxazin-3-one] |  |  |  | m1 % Efficacy ([1]; R-SAT, cloned m1 receptor): 97%; m1 pEC50 ([1]; R-SAT, cloned m1 receptor): 8.0 |
|  | CCCCCC1CC2CC[C@@H](C1)N2C[C@@H](C)CN1C(=O)COc2cc(F)ccc21 (stereo partly drawn) [Compound 112KK20-c5, (R,S)-7-Fluoro-4-[2-methyl-3-(3-pentyl-8-azabicyclo[3.2.1]oct-8-yl)propyl]-4H-benzo[1,4]oxazin-3-one] |  |  |  | EC50 [1, 3]: 5.01 nM; Emax [1]: 117% |
|  | CC(CN1C(=O)COc2ccccc21)CN1C2CCC1CC(=CCOCC1CC1)C2 [Compound 00262357, 4-{(R,S)-3-[3-(2-Cyclopropylmethoxyethylidene)-8-aza-bicyclo[3.2.1]oct-8-yl]-2-methylpropyl}-4H-benzo[1.4]oxazin-3-one] | 12.6 nM | 79 |  |  |
| 631 nM | O=C1COc2ccc(F)c(F)c2N1CCCN1CCC(OCC2CC2)CC1 [Compound 00262696, 4-[3-(4-Cyclopropylmethoxypiperidin-1-yl)propyl]-5,6-difluoro-4H-benzo[1,4]oxazin-3-one] |  | 83 |  |  |
| 1580 nM | O=C1COc2c(F)ccc(F)c2N1CCCN1CCC(OCC2CC2)CC1 [Compound 00262869, 4-[3-(4-Cyclopropylmethoxypiperidin-1-yl)propyl]-5,8-difluoro-4H-benzo[1,4]oxazin-3-one] |  | 32 |  |  |
| 794 nM | O=C1COc2cc(F)cc(F)c2N1CCCN1CCC(OCC2CC2)CC1 [Compound 00262471, 4-[3-(4-Cyclopropylmethoxypiperidin-1-yl)propyl]-5,7-difluoro-4H-benzo[1,4]oxazin-3-one] |  | 86 |  |  |
|  | COCC[C@H]1C[C@H]2CC[C@@H](C1)N2C[C@H](C)CN1C(=O)COc2ccccc21 [Compound 00263035, (S)-4-{3-[3a-(2-Methoxyethyl)-8-azabicyclo[3.2.1]oct-8-yl]-2-methylpropyl}-4H-benzo[1.4]oxazin-3-one] | 251 nM | 97 |  |  |
|  | CCCCC1CCN(CCCN2CCCc3ccc(C(F)(F)F)cc32)CC1 [Compound 55LH54, 1-[3-(4-Butyl-piperidin-1-yl)-propyl]-7-trifluoromethyl-12.3.4-tetrahydro-quinoline] |  |  |  | Emax ([1]; R-SAT, cloned m1 receptor): 57%; EC50 [1, 9]: 398 nM |
|  | CCCCC1CCN(CCCN2C(=O)CCc3c2ccc(F)c3C)CC1 [Compound 107LH95-1, 1-[3-(4-Butyl-piperidin-1-yl)propyl]-6-fluoro-5-methyl-3,4-dihydro-1H-quinolin-2-one] |  |  |  | Emax ([1]; R-SAT, cloned m1 receptor): 103%; EC50 [1, 9]: 25.1 nM |
